Source: patent US20090274738A1, “IMPLANTABLE DEVICES FOR PROMOTING REENDOTHELIALIZATION AND METHODS OF USE THEREOF” (priority 2008, published 2009)

Experiments:
[1] = assay type: in vivo
Method: Tissue samples and stents were analyzed for each animal for estrogen content. The right coronary artery (RCA) and the left anterior descending artery (LAD) were opened longitudinally and cut into 6 pieces; 2 in the proximal region, 2 in the medial region and 2 in the distal region of the stented segment. One piece in each region was analyzed and the other one was kept as a backup. To evaluate the migration of E2 through the arterial wall, the left circumflex artery (LCX) was dissected to separate the adventitia from the rest of the artery and the two fractions were analyzed individually. […] After centrifugation, sera were collected for extraction and analysis by GC/MS.
Hormones Deuterium-labeled estradiol 2,4,16,16,17-D5 (17β-D5) (CDN Isotopes, Pointe Claire, Canada) and micronized estradiol (USP, Xenex labs, Coquitlam, Canada) were used respectively as internal and external controls.
Extraction of steroids—17β-estradiol extraction in pig serum. Blood samples of 8.5 mL were collected at specific time from each animal in the coronary sinus using an 8 French guiding catheter at baseline, 10 min and 1 hr after stent implantation and at sacrifice. Samples were centrifuged at 1800 rpm at 4° C. for 10 minutes. […]
Estrogen quantification data Estrogen quantification was performed by Gas Chromatography/Mass Spectroscopy (GC/MS) as described above. Diffusion of E2 from the stent was determined in tissue in direct contact with the stent (coronary tissues proximal, medial, distal (see FIG. 9)), in close proximity (reference proximal, reference distal, adventitia, peri-coronary muscle, peri-coronary white fat (see FIG. 10)) or at distal sites potentially exposed to E2 released from the stent into the blood (carotid artery, femoral artery, apex, auricle, lung, kidney and liver). To obtain the total amount of E2 in an artery, E2 content measured by GC/MS in the proximal, medial and distal portions of each stented coronary segment were added together. […] The E2 content of the total adventitia dissected from each RCA was also determined.

[2] = Tissue uptake of estradiol administered locally with a catheter; assay type: in vivo; settings: 10 mg administered with a catheter over a few seconds
Method: Stents and hormone used for the procedures The polymer poly (ester-amide) (PEA)/estradiol (E2) stents used in Examples presented herein were prepared by MicroPort (MicroPort Medical Co, Ltd. Shanghai). Stainless steel bare metal stents were of 18 mm and 23 mm length and were spray coated by MicroPort with 300 μg or 500 μg of E2 matrixed with MediVas™ poly (ester-amide) (MVPEA.I.(Ac)) tempo polymer. […] The sizes of Cypher™ stents were; 3×18 mm, 3.5×18 mm, 3×23 mm, 3.5×23 mm (Johnson & Johnson). The sizes of Taxus™ stents were 2.25×12 mm, 3×16 mm, 3.5×16 mm, 3×24 mm, 3.5×24 mm (Boston Scientific). The estradiol (USP) used to load the polymer poly (ester-amide) (PEA)/E2 stents was bought from Xenex labs (Coquitlam, Canada) and send to Microport. The estradiol used for local delivery by catheter in the objective 2 was the water soluble form coupled with hydroxypropyl-heta-cyclodextrin (HPCD).

[3] = system: endothelial progenitor cell; settings: cited from earlier work
[4] = system: foetal bovine aortic endothelial cell; settings: cited from earlier work

C[C@]12CC[C@@H]3c4ccc(O)cc4CC[C@H]3[C@@H]1CC[C@@H]2O [estradiol, 17-β-Estradiol]
penetration of estradiol through the arterial wall ([1]; detected in adventitia, peri-coronary muscle and white fat tissues): deep penetration | mean concentration of estradiol in coronary tissue ([1]; first 48 hours, 500 μg E2 stent): 12.0 μg/g of tissue | E2 concentration in tissues at distal location from stent ([1]; in vivo): at baseline level | amount in the tissue overall [2]: 51 µg | fraction of dose up-taken by the tissue [2]: 0.51% | concentration with strong negative effect on endothelial progenitor cell growth [3]: ≥ 10 µM | concentration at which enhancement of foetal bovine aortic endothelial cell growth was lost [4]: ≥ 100 nM
